Target: T1, AqNR1-LBD (Amphimedon queenslandica, UniProt B1A9Z2)
T1 construct: fusion kept for serum incubation), E. coli BL21(DE3) pLysS
Test: lipid extraction and negative-ion ESI/MS of purified LBD
Type: binding
Conditions: co-purified from E. coli (also after complete serum); identified by mass as 18:0, chain isomer not told

T1 sequence (B1A9Z2 entry or part of it): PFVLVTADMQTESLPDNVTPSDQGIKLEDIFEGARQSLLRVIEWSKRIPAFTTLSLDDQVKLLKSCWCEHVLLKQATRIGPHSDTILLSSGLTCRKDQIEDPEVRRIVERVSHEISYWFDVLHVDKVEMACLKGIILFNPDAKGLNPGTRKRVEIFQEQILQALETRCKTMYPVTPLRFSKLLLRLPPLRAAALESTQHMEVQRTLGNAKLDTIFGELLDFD

CCCCCCCCCCCCCCCCCC(=O)O [18∶0 fatty acid]
lipid extraction and negative-ion ESI/MS of purified LBD: bound an array of bacterial free fatty acids (FAs)

From publication PMC2950128, “Protein Evolution by Molecular Tinkering: Diversification of the Nuclear Receptor Superfamily from a Ligand-Dependent Ancestor” (PLoS Biology, 2010)
